Consider 1 compound from article PMC10947113, “A Bivalent Activatable Fluorescent Probe for Screening and Intravital Imaging of Chemotherapy‐Induced Cancer Cell Death” (Angewandte Chemie (Weinheim an Der Bergstrasse, Germany), 2021).

For one experiment, the system named is 8 cancer cell lines. The experiment is described as follows: Classification of drugs by Apotracker Red (apoptosis) and CellTrace Violet (proliferation) staining. Format: cell-based. Conditions: 8 cancer cell lines, 24 h treatment, flow cytometry. As for the experimental part:
To corroborate the versatility of Apotracker Red, we built a screening platform including a total of 8 cancer cell lines of variable origin and pathogenesis: breast (MCF7, MDA‐MB231 and MMTV‐PyMT (mouse mammary tumour virus‐polyoma middle tumour‐antigen)[23]), lung (A549), prostate (PC3 and LnCap), blood cells (Jurkat) and colon (HT29). All cell lines were cultured under standard conditions and seeded with the fluorescent proliferation marker CellTrace^TM Violet (CV) in 96‐well plates (10–20×10^3 cells/well) for high‐throughput flow cytometry. After drug treatment (i.e., drug addition plus 24 h incubation), Apotracker Red was incubated for 10 min and fluorescence readings were directly acquired without any additional processing steps (Figure 3 a). […] Using this platform, we tested a collection of FDA‐approved drugs in all cancer cell lines and compared their ability to induce apoptosis using Apotracker Red as the reporter. Specifically, we included DNA alkylation agents (e.g., cyclophosphamide, cisplatin, 5‐fluorouracil, gemcitabine, temozolomide), proteasomal and mitotic inhibitors (e.g., bortezomib, docetaxel, paclitaxel) and antagonists of specific proteins (e.g., dexamethasone, tamoxifen; Figure 3 b).
(§1) First, all drugs were tested in the 8 different cell lines to determine the percentages of Apotracker Red‐stained apoptotic cells compared to no treatment (Figure 3 c; Figure S8). […] All 5 drugs were tested at multiple concentrations (from 1 to 100 μM) and with incubation times up to 48 h to examine whether drugs could block cell proliferation at late stages (Figures S9–S13).
Figure S8. Heatmap of relative inhibition of cell proliferation (as indicated by staining of CellTraceTM Violet) after treatment of cancer cell lines with different drugs. Data presented as an average of 3 independent experiments. Cells were stained on day 0 with CellTraceTM Violet (1 µM) and mean fluorescence intensities were determined on the 5L LSR after 24 h of treatment with the different drugs. […]
Cell culture. MCF-7, A549, LnCap, MDA-MB-231, Jurkat T cells and PC3 cells were obtained from American Type Culture Collection (ATCC). HT29 cells were purchased from Merck (S i g m a Aldrich, UK). Mouse Mammary Tumour Virus –Polyoma Middle T antigen (MMTV -PyMT) cells were provided by the lab of Mikala Egeblad (CSHL, US). MMTV-PyMT, MCF-7, LnCap, MDA-MB-231 and Jurkat T cells were cultured in Roswell Park Memorial Institute (RPMI) 1640 Medium supplemented with 10% fetal bovine serum (FBS) , 100 U mL-1 penicillin and 0.1 mg mL-1 streptomycin. A549 and PC3 cells were cultured in Dublecco’s modified Eagle’s medium (DMEM) supplemented with 10% fetal bovine serum (FBS), 100 U mL-1 penicillin and 0.1 mg […]
Flow cytometry drug screen.
(In flow cytometry, cells or beads pass a laser one at a time.)

For experiment [1], the system named is breast cancer cells (MMTV-PyMT, MDA-MB231, MCF7). The experiment is described as follows: Dose-dependency study in breast cancer cell lines. Format: cell-based, mouse and human. As for the experimental part: as §1, with “S8). […] From this screen, we decided to select 5 drugs with potent pro‐apoptotic response in breast cancer, the most diagnosed cancer worldwide.[25] […] From group 2, we selected cyclophosphamide, tamoxifen, and 5‐fluorouracil as pro‐apoptotic molecules.” for “S8).”
Figure 4 Apotracker Red detects dose‐dependent chemotherapeutic‐induced apoptosis in mouse and human breast cancer cell lines. Cells were plated with 1 μM CV, treated with increasing concentrations (0, 1, 3, 10, 30 and 100 μM) of selected drugs for 48 h, and stained with Apotracker Red (150 nM) before data acquisition. Drugs: tamoxifen (beige), cisplatin (black), 5‐fluorouracil (green), gemcitabine (pink) and cyclophosphamide (red). Data presented as mean±SEM of 3 independent experiments.
Edinburgh. Human peripheral blood neutrophils were isolated as previously described.[3] Briefly, whole blood was drawn into tubes containing anti -coagulant 3.6% sodium citrate (final concentration: 0.4% (w/v)) and centrifuged at 350 g for 20 min at r.t. with lowest acceleration and no brake. Platelet-rich plasma was rem oved, and leukocytes separated from erythrocytes by 0.6% dextran sedimentation in saline for 30 min at r.t. […]
were centrifuged (300 g, 5 min, r.t.), washed once with PBS before addition of 0.05% Trypsin, 0.02% ethylenediaminetetraacetic acid (EDTA) in Hank’s balanced salt solution (HBSS) and incubation at 37°C for 5 min. […] Histograms and mean fluorescence intensities of apoptotic cells were measured on a 5L LSR flow cytometer under the following excitation/emission filters: Apotracker Red (561/610 nm), Annexin V-AF647 (647 /670 nm).
Data were acquired using the FACS Diva software and analysed using the FlowJo X software. […]

Turning to `N.N.[Cl][Pt][Cl]` [cisplatin], the “drug group by Apotracker Red (apoptosis) and CV (proliferation) staining” value in the experiment with 8 cancer cell lines is “induced apoptosis and decreased cell proliferation”. In addition, in experiment [1] (1 to 100 μM, 48 h, Apotracker Red 150 nM, 3 independent experiments), the “percentages of Apotracker Red staining across all breast cancer cells, dose-dependency study” value is “highest percentages of Apotracker Red staining”. Also, in experiment [1] (CellTrace Violet 1 μM, drugs 1 to 100 μM, up to 48 h), the “ratios of proliferation blockage, dose-dependency study” value is given as “highest ratios of proliferation blockage”.
